Legend:
ckr mouse = experiment: Motor activity in chakragati (ckr) mice; type: in vivo; settings: 10 mg/kg intraperitoneal, 20 minutes after injection, monitored 15 minutes
Protocol: The mouse also presents lateral ventricular enlargement, which may mirror neuropathological observations in shizophrenia. […] We have further validated this model by testing risperidone, clozapine, haloperidol and pimozide in the ckr mouse. The behavioral output was assayed by measuring the rate of hyperactivity and circling after administration.
A stock solution of compound 2 was dissolved in DMSO, and then diluted to 10 mg/10 ml with distilled water such that the final concentration of DMSO was 0.5%. Each animal received 10 mg/kg of the test drug in a volume of 0.1 ml per 10 g. Additional drugs were tested in parallel in a similar manner.
Twenty ckr mice (male and female, 3 months old) were randomly assigned to receive the test drug (compound 2) or 0.5% DMSO vehicle. The drug was tested in 5 mice. Each treatment was separated by a minimum washout period of 3 days. On the day of testing, mice were brought into the behavioral test room and allowed to acclimatize for at least 1 hour. They then received intraperitoneal injections of the 0.1 ml/10 g (10 mg/kg) of the test drug solution or vehicle. They were returned to their cage and 20 minutes later they were placed in a 190 mm diameter, 300 mm deep circular recording chamber. […] The mice were monitored with an overhead video camera for 15 minutes. […] The total distance moved, the velocity of movement, and the time spent moving were calculated. […]

Serotonin 5HT1A = target: T1, Serotonin 5HT1A (Homo sapiens, UniProt P08908); experiment: Radioligand binding, Serotonin 5HT1A; settings: read-out: Percentage Inhibition
T1 sequence (P08908 1-422): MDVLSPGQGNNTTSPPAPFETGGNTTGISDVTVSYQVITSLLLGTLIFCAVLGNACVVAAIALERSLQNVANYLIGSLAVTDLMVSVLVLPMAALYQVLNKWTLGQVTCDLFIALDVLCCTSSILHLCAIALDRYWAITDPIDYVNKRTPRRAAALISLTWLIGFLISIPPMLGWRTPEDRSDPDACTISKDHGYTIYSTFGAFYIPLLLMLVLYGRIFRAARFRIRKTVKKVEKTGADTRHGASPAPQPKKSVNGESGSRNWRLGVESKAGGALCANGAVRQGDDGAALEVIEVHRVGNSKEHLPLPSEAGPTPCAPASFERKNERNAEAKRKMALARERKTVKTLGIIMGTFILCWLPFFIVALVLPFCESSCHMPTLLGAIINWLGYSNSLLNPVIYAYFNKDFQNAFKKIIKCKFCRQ
Protocol: (§1) The assays utilized human neuroreceptors and were performed under the experimental parameters set forth in Table 2 using standard techniques.
(§2) For Table 3, IC50 values were determined by non-linear, least squares regression analysis using Data Analysis Toolbox™ (MDL Information Systems, San Leandro, Calif., USA). Inhibition constants (KI) were calculated using the equation of Cheng and Prusoff (Cheng, Y., et al. Biochem. Pharmacol. 22:3099-3108, 1973) using the observed IC50 of the tested compound, the concentration of radioligand employed in the assay, and the values for the KD of the ligand. The Hill coefficient (nH), defining the slope of the competitive binding curve, was calculated using the Data Analysis Toolbox™. Biochemical assay results are presented as the percent inhibition of specific binding or activity unless indicated otherwise. The experiments summarized in Table 3 utilized human dopamine D1, D2 s, D21, D3, D4.2, D4.4, serotonin 5HT1A, 5HT2A, 5HT2C, 5HT6, 5HT7, dopamine transporter (DAT), serotonin transporter (SERT) and the norepinephrine transporter (NET), as indicated in Table 3.

Dopamine D2s = target: T2, Dopamine D2s (Homo sapiens, UniProt P14416); experiment: Radioligand binding, Dopamine D2S ([3H]Spiperone)
T2 construct: host or cells: CHO cells
Protocol: as §1, §2

T2 sequence (P14416 1-414 isoform P14416-2): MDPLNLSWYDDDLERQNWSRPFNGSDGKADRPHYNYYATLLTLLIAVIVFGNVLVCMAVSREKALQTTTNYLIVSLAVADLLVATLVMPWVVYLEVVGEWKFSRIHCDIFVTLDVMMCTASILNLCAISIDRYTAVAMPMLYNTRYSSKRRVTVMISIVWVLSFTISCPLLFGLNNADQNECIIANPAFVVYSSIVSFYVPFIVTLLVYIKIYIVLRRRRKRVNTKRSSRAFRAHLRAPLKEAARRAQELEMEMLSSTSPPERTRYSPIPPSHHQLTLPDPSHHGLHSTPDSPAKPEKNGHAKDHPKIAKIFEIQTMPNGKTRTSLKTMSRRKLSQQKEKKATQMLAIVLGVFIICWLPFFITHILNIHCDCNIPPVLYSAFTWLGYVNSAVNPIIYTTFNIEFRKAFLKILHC

SMILES: COC(=O)[C@@H](c1ccc(-c2ccccc2)cc1)[C@H]1C=CCCN1 [Compound 2]
- time spent moving (ckr mouse): significantly decreased the time spent moving
- velocity of movement (ckr mouse): trend towards decreased velocity
- inhibition at 10 µM (Serotonin 5HT1A): 13%
- IC50 (Dopamine D2s): 51.8 µM
- Ki (Dopamine D2s): 18.7 µM
- inhibition at 10 µM (Dopamine D2s; Dopamine D2s, 10 μM, read-out: Percentage Inhibition): 26%
- inhibition at 100 µM (Dopamine D2s; Dopamine D2s, 100 μM, read-out: Percentage Inhibition): 62%
- nH (Dopamine D2s; Dopamine D2s, Hill coefficient): 0.788
